As a reminder, the IC50 is the midpoint of a concentration-inhibition curve. As usually defined, the solubility is the concentration that dissolves in the medium under given conditions. As a reminder, the inhibition is the drop in the measured response relative to a control, in per cent.

Converted amounts (≈) assume the structure as drawn. Where two headings read alike, the source gives them in different places.

For one data set, the target named is hKir2.1 (Homo sapiens (Human), UniProt P63252). Briefly: thallium (Tl+) flux assay. The data set is classed as cell-based.
hKir2.1, sequence (P63252 whole entry): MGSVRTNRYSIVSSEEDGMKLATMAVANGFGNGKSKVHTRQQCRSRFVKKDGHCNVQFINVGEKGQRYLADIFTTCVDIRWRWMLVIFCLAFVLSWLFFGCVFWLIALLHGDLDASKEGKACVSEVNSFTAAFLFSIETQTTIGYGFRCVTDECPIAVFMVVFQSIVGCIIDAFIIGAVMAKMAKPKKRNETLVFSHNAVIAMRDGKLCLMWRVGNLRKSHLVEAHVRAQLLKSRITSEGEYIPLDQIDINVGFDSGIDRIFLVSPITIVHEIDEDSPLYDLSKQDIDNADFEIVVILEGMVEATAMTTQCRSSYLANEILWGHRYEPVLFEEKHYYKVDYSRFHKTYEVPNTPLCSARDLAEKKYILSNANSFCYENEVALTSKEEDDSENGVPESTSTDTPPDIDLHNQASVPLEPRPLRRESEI
A short description of data set [1]: solubility limit in feeding solution.
For data set [2], the system named is isolated tick salivary gland. Briefly: ion secretion in saliva of the isolated tick salivary gland. More on the design: species or system Amblyomma americanum.
A further data set has as its target Kir6.2/SUR1 (Homo sapiens (Human), UniProt Q09428+Q14654). Briefly: thallium (Tl+) flux assay. The data set is classed as cell-based, mammalian. How it is done: (§1) The thallium flux assay is an in vitro method of measuring conductance through a potassium ion channel. Potassium channels are also permeable to thallium ions. The modulation of a K^+ channel will thus increase or decrease thallium ion flow through the channel and thus, alter the observed fluorescence of a thallium-specific indicator dye.
(§2) Stably transfected T-Rex-HEK-293-AnKir1 cells were cultured overnight in 384-well plates in media containing DMEM, 10% dialyzed FBS, and 1 μg/mL tetracycline to induce channel expression. The next day the cell culture medium was replaced with a dye-loading solution containing assay buffer (Hanks Balanced Salt Solution with 20 mM HEPES, pH 7.3), 0.01% (w/v) Pluronic F-127 (Life Technologies, Carlsbad, Calif.), and 1.2 μM of the thallium-sensitive dye Thallos-AM (TEFlabs, Austin, Tex.). After 1 hr incubation at room temperature, the dye-loading solution was washed from the plates and replaced with 20 μL/well of assay buffer. […] To ensure the small-molecule vehicle DMSO had no direct effect on AnKir1-dependent Tl^+ flux, the assay's tolerance to different doses of DMSO was evaluated. The robustness and reproducibility of the assay was determined by comparing Tl^+ flux through tetracycline-induced and tetracycline-free cells. The Z′ value was calculated as:
(§3) Z′=1−(3SDp+3SDn)/|meanp+meann| where SD is standard deviation, and p and n are control and uninduced flux values, respectively. […] Half-inhibition concentration (IC50) values were calculated from fits using a four parameter logistic equation. […]
(§4) Tl^+ flux data were analyzed using Excel (Microsoft Corp, Redmond, Wash.) with XLfit add-in (IDBS, Guildford, Surrey, UK), OriginPro (Origin Lab, Northampton, Mass.), and GraphPad Prism (GraphPad Software, San Diego, Calif., USA) software. […] The slope of the fluorescence increase beginning 5 s after Tl^+ addition and ending 15 s after Tl^+ addition was calculated.

A further data set deals with Kir4.1 (Homo sapiens (Human), UniProt P78508). Briefly: thallium (Tl+) flux assay. The data set is classed as cell-based, mammalian. The conditions noted are these: means (n = 3); read-out: IC50 μM (95% Cl). As to the method:
as §1, §2, §3, §4

The target in the next data set is Kir7.1 (Homo sapiens (Human), UniProt O60928). Put plainly: thallium (Tl+) flux assay. Format: cell-based, mammalian.
Kir7.1, sequence (O60928 whole entry): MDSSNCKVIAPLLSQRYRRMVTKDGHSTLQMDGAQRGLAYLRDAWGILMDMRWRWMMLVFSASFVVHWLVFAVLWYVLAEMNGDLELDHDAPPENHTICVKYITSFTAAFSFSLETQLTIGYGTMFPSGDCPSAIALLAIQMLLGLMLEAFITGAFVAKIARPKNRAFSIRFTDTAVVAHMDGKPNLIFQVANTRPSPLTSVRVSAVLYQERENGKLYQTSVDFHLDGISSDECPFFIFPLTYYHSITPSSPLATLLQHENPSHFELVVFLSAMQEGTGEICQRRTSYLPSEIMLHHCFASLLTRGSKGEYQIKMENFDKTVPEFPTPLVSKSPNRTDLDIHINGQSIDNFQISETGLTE
Another data set has as its system mosquitoes. Put plainly: topical toxicity to mosquitoes (species not specified). The conditions noted are these: dose of 10 μg per mg; within 24 h. The data set is classed as in vivo.
For the next data set, the target named is AnKir1 (Anopheles gambiae, UniProt A0A075M2J8). Put plainly: thallium (Tl+) flux assay. The data set is classed as cell-based. As to the method:
as §1
After 1 hr incubation at room temperature, the dye-loading solution was washed from the plates and replaced with 20 μL/well of assay buffer. The plates were transferred to a Hamamatsu Functional Drug Screening System 6000 (FDSS6000; Hamamatsu, Tokyo, Japan), where 20 μL/well of each of the test compounds in assay buffer was added and allowed to incubate with the cells for 20 min. After incubation, a baseline recording was collected at 1 Hz for 10 s (excitation 470±20 nm, emission 540±30 nm); a thallium stimulus buffer was then added (10 μL/well), and data were then collected for an additional 4 min. […] To ensure the small-molecule vehicle DMSO had no direct effect on AnKir1-dependent Tl^+ flux, the assay's tolerance to different doses of DMSO was evaluated. The robustness and reproducibility of the assay was determined by comparing Tl^+ flux through tetracycline-induced and tetracycline-free cells. The Z′ value was calculated as:
Z′=1−(3SDp+3SDn)/|meanp+meann| where SD is standard deviation, and p and n are control and uninduced flux values, respectively. To compare the effect of DMSO on AnKir1-mediated Tl^+ flux, a one-way ANOVA was performed with a Tukey's multiple comparison test. Prism software (GraphPad Software) was used to generate CRC from Tl^+ flux. Half-inhibition concentration (IC50) values were calculated from fits using a four parameter logistic equation.
Test compounds were transferred to daughter, 384-well polypropylene plates (Greiner Bio-One, Monroe, N.C.) with an Echo555 liquid handler (Labcyte, Sunnyvale, Calif.), and then diluted into assay buffer to generate a 2× stock in 0.6% DMSO (0.3% final). […] Concentration-response curves (CRCs) were generated by screening compounds at 3-fold dilution series (1 nM-30 μM).
Tl^+ flux data were analyzed using Excel (Microsoft Corp, Redmond, Wash.) with XLfit add-in (IDBS, Guildford, Surrey, UK), OriginPro (Origin Lab, Northampton, Mass.), and GraphPad Prism (GraphPad Software, San Diego, Calif., USA) software. Raw data were opened in Excel and each data point in a given trace was divided by the first data point from that trace (static ratio) followed by subtraction of data points from control traces generated with vehicle controls. The slope of the fluorescence increase beginning 5 s after Tl^+ addition and ending 15 s after Tl^+ addition was calculated.
To perform Tl+ flux assays, stably transfected T-Rex-HEK-293 cells expressing AnKir1 channels were cultured overnight in 384-well plates (20,000 cells/20 μL/well), black-walled, clear-bottomed BD Pure Coat amine-coated plates (BD, Bedford, Mass.) with a plating media containing DMEM, 10% dialyzed FBS and 1 μg/mL tetracycline. […] Following 1 hr incubation at room temperature, the dye-loading solution was washed from the plates and replaced with 20 μL/well of assay buffer.

Where [3] appears, read: means (n = 3), selectivity panel, read-out: IC50 μM (95% Cl).
The mark [4] stands for this setting: means (n = 3), read-out: IC50 μM (95% Cl).

AnKir1, sequence (A0A075M2J8 1-555): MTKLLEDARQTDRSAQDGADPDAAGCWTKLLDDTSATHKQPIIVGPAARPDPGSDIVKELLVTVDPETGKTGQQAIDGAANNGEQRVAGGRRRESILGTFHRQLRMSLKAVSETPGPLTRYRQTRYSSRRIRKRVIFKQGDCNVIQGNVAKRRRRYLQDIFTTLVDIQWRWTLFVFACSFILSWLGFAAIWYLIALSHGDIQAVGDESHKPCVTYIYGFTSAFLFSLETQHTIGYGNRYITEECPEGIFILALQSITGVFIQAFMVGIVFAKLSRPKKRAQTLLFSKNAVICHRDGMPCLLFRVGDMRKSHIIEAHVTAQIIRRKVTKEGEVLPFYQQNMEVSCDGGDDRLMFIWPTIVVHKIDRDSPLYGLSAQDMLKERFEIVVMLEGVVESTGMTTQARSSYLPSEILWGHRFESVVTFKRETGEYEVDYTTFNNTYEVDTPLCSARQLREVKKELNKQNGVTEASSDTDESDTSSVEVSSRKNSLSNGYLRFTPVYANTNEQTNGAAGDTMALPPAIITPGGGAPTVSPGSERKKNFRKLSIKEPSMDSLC
Kir6.2/SUR1, sequence (Q14654 whole entry): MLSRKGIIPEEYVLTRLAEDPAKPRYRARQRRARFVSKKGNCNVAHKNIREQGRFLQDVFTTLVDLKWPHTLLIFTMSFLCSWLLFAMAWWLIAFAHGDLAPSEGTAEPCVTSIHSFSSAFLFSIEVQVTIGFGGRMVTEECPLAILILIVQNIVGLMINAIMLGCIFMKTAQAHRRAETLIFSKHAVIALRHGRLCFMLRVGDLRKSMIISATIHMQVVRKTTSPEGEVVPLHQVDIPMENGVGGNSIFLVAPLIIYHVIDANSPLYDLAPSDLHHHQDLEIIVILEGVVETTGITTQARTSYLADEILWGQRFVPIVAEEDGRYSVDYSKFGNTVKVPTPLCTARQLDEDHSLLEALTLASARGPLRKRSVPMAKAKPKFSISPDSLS
Kir6.2/SUR1, sequence (Q09428 whole entry): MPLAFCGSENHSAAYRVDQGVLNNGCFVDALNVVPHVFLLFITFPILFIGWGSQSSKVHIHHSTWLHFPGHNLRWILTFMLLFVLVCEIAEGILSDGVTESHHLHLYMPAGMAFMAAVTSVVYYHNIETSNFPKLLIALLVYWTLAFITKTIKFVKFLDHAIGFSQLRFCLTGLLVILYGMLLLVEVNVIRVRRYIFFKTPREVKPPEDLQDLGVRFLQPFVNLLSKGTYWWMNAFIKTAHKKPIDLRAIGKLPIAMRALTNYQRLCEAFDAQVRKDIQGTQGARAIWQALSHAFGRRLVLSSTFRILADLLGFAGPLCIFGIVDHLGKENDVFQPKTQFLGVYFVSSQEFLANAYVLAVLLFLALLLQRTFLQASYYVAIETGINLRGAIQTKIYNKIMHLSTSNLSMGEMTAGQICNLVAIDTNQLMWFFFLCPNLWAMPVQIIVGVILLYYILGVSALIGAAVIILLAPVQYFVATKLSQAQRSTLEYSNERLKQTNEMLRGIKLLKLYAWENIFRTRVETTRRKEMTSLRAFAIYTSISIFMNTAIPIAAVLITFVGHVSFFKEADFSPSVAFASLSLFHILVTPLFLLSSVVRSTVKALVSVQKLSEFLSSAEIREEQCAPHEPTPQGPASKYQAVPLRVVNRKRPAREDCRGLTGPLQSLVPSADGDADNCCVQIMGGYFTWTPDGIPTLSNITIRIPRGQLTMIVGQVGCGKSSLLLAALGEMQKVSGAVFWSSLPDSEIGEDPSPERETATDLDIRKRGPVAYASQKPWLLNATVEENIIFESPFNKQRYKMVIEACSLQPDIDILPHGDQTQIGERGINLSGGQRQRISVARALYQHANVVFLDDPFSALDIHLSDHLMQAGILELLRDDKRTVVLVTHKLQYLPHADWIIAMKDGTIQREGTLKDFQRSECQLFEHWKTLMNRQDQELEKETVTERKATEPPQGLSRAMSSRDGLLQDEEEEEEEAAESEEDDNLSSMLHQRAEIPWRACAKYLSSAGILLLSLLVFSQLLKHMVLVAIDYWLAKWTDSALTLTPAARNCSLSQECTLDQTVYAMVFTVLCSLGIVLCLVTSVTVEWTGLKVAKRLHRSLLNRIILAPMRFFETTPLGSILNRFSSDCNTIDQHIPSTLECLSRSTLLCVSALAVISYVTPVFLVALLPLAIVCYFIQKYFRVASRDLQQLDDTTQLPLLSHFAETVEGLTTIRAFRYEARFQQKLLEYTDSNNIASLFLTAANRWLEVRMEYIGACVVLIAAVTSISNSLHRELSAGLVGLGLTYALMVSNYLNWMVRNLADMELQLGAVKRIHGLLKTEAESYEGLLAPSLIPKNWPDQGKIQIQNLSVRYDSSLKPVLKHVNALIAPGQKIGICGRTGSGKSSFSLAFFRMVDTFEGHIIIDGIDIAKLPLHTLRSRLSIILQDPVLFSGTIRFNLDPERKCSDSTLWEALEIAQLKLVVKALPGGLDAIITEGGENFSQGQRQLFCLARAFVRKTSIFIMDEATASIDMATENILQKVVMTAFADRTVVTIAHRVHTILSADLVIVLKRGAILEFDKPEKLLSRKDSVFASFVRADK
Kir4.1, sequence (P78508 whole entry): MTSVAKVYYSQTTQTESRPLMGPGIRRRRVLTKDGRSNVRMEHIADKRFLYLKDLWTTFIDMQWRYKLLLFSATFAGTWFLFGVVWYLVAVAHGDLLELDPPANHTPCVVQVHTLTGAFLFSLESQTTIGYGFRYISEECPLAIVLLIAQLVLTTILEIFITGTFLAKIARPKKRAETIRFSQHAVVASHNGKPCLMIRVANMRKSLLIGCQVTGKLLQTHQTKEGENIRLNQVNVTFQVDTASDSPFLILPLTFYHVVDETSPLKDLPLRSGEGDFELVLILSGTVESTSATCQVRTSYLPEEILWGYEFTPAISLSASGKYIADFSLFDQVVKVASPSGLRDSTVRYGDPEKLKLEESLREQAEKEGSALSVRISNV

For `O=C(Cn1nc(C(F)(F)F)c2c1CCCC2)N1CCCc2ccccc21` [VU041, 1-(3,4-dihydroquinolin-1(2H)-yl)-2-(3-(trifluoromethyl)-4,5,6,7-tetrahydro-1H-indazol-1-yl)ethan-1-one], the IC50 at hKir2.1 (SAR libraries, read-out: hKir2.1 IC50) is 11.3 µM; on hKir2.1 (setting [3]), 12.7 µM; at Kir6.2/SUR1 (setting [4]), > 30 µM; on Kir4.1, > 30 µM; on Kir7.1 (setting [4]), > 30 µM; at AnKir1 (SAR libraries, read-out: AnKir1 IC50) it was 2.3 µM. Also, at AnKir1 (setting [3]), the IC50 was found to be 2.5 µM. Besides, in data set [1] (5% (wt/vol) sucrose solution, water), the solubility was 200 µM (≈ 72.7 µg/mL). For the same compound, the “K+ and Na+ ion secretion rates in salivary droplets” value in data set [2] is “significantly reduced”. Moreover, the inhibition at 30 µM against Kir6.2/SUR1 (concentration of 30 μM) and against Kir7.1 (concentration of 30 μM) was < 10% each time. Also, the lethality against mosquitoes with mosquitoes is ~100%.

As to `O=C(Cn1nc(C(F)(F)F)c2c1CCCC2)NC1CCC1` [VU937], in data set [1] (5% sucrose solution), the solubility limit worked out at 700 µM (≈ 211 µg/mL). For the same compound, the “AnKir1 IC50 (μM)” value at AnKir1 (SAR libraries, listed as 18) is “inactive”; on AnKir1 (SAR libraries, listed as Compound 18) it was “not tolerated”.

The record behind these values is patent US11632953B2, “Method for controlling hematophagous or sap-feeding arthropods” (Board of Supervisors of Louisiana State University and …, priority 2016, dated 2023).
